Laboratory results from patent US20240043435A1, “TYK-2 INHIBITOR” (BEIGENE, LTD., priority 2020, published 2024).

Experiments:
pSTAT5/GM-CSF = pSTAT5/GM-CSF cellular assay (JAK2 selectivity); type: cell-based; conditions: for Selectivity fold (TYK2/JAK2): pSTAT5/GM-CSF IC50 over pSTAT4/IL-12 IC50
[1] = target: T1, TYK2-JH2 (aa 575-869, in-house) protein (Homo sapiens, UniProt P29597); test: TYK2-JH2 biochemical assay (HTRF probe displacement); type: binding; conditions: Biochemical assay; read-out: TYK2-JH2 IC50
T1 construct: TYK2-JH2 (aa 575-869, in-house) protein; made in house
Procedure, shortened: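 HTRF probe-displacement format: compound dilutions (10 points, 5-fold, from 500 uM in DMSO at 500×) were combined with 0.2 nM TYK2-JH2 protein for 0.5 h at room temperature in HEPES pH 7.5 buffer with MgCl2, BSA, DTT and Brij-35. Percent inhibition came from the 615/665 nm fluorescence ratio, fitted to a four-parameter logistic for IC50.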

[2] = test system: JAK2, TYK2/p-STAT4 (Tyr693) activated by IL-12 in NK-92 cell line; test: IL-12-JAK2, TYK2/p-STAT4 (Tyr693) inhibition IC50 cellular assay; type: cell-based; conditions: for Selectivity fold (TYK2/JAK2): Cellular assay, pSTAT5/GM-CSF IC50 vs pSTAT4/IL-12 IC50; for IC50: NK92, Cellular assay, read-out: pSTAT4/IL-12 IC50
Procedure, shortened: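 p-STAT4 (Tyr693) in lysates was measured by AlphaLISA SureFire Ultra after a 30 min IL-12 challenge (40 ng/ml final) at 37° C. Overnight-starved, IL-2-free NK-92 cells had been pretreated 1 h with compound at 10000 to 0.61 nM (4-fold, 8 points). IC50 values came from four-parameter logistic fitting.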

T1 sequence (P29597 575-869): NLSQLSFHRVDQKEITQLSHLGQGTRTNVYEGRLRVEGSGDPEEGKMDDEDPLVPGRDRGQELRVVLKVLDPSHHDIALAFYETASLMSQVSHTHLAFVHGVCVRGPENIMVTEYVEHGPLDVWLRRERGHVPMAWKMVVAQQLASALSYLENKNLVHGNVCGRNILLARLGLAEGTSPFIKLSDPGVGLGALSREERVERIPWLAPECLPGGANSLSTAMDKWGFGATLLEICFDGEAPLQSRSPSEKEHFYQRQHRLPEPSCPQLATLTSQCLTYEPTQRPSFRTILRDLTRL

SMILES	IC50 (pSTAT5/GM-CSF) [nM]	IC50 [1] [nM]	Selectivity fold (TYK2/JAK2) [2] [fold]	IC50 [2] [nM]	Selectivity fold (TYK2/JAK2) (pSTAT5/GM-CSF) [fold]
COCc1ccnc(-c2cnc(NC(C)=O)cc2Nc2cccc(S(C)(=O)=O)n2)c1 [Example B8, N-(4-(methoxymethyl)-4′-((6-(methylsulfonyl)pyridin-2-yl)amino)-[2,3′-bipyridin]-6′-yl)acetamide]	> 10000	0.047	>5952	1.68	
CCOc1cc(Nc2cc(NC(C)=O)ncc2-c2ccn(CC)n2)nc(S(C)(=O)=O)c1 [Example M18, N-(4-((4-ethoxy-6-(methylsulfonyl)pyridin-2-yl)amino)-5-(1-ethyl-1H-pyrazol-3-y)pyridin-2-yl)acetamide]	> 10000	0.026		0.989	>10111
CC(=O)Nc1cc(Nc2cc(OCC(C)O)cc(S(C)(=O)=O)n2)c(-c2ccc(C(C)(C)O)cn2)cn1 (stereo not drawn) [Example H26, N-(5-(2-hydroxypropan-2-yl)-4′-((4-(2-hydroxypropoxy)-6-(methylsulfonyl)pyridin-2-yl)amino)-[2,3′-bipyridin]-6′-yl)acetamide]	> 10000	0.039	>854	11.7	
COC1CN(c2cc(Nc3cc(NC(C)=O)ncc3-c3ccc4c(n3)OCC(C)(C)O4)nc(S(C)(=O)=O)c2)C1 [Example Q49, N-(5-(2,2-dimethyl-2,3-dihydro-[1,4]dioxino[2,3-b]pyridin-6-yl)-4-((4-(3-methoxyazetidin-1-yl)-6-(methylsulfonyl)pyridin-2-yl)amino)pyridin-2-yl)acetamide]	379	0.029		0.827	458
CC(=O)Nc1cc(Nc2cccc(S(C)(=O)=O)n2)c(C2=NC(C)(C)CS2)cn1 [Example R1, N-(5-(4,4-dimethyl-4,5-dihydrothiazol-2-yl)-4-((6-(methylsulfonyl)pyridin-2-yl)amino)pyridin-2-yl)acetamide]	> 10000	0.041		2.18	>4587
CC(=O)Nc1cc(Nc2cc(-c3cscn3)cc(S(C)(=O)=O)n2)c(-c2ccc3c(n2)OCC(C)(C)O3)cn1 [Example Q119, N-(5-(2,2-dimethyl-2,3-dihydro-[1,4]dioxino[2,3-b]pyridin-6-yl)-4-((6-(methylsulfonyl)-4-(thiazol-4-yl)pyridin-2-yl)amino)pyridin-2-yl)acetamide]	1150	0.031		1.19	965
CC(=O)Nc1cc(Nc2cc(OC(C)C)cc(S(C)(=O)=O)n2)c(-c2ccn(C)n2)cn1 [Example J2, N-(4-((4-isopropoxy-6-(methylsulfonyl)pyridin-2-yl)amino)-5-(1-methyl-1H-pyrazol-3-yl)pyridin-2-yl)acetamide]	> 10000	0.022		3	>3333
COC(C)COc1cc(Nc2cc(NC(C)=O)ncc2-c2ccc(C(C)(C)O)cn2)nc(S(C)(=O)=O)c1 (stereo not drawn) [Example H7, N-(5-(2-hydroxypropan-2-yl)-4′-((4-(2-methoxypropoxy)-6-(methylsulfonyl)pyridin-2-yl)amino)-[2,3′-bipyridin]-6′-yl)acetamide]	> 10000	0.046	>8196	1.22	
CCS(=O)(=O)c1cc(OC(C)C)cc(Nc2cc(NC(C)=O)ncc2-c2ccn(C)n2)n1 [Example J53, N-(4-((6-(ethylsulfonyl)-4-isopropoxypyridin-2-yl)amino)-5-(1-methyl-1H-pyrazol-3-yl)pyridin-2-yl)acetamide]	> 10000	0.033		3.47	>2881
[2H]C([2H])([2H])Oc1cc(Nc2cc(NC(C)=O)ncc2-c2ccc3c(n2)OCC(C)(C)O3)nc(S(C)(=O)=O)c1 [Example Q24, N-(5-(2,2-dimethyl-2,3-dihydro-[1,4]dioxino[2,3-b]pyridin-6-yl)-4-((4-(methoxy-d3)-6-(methylsulfonyl)pyridin-2-yl)amino)pyridin-2-yl)acetamide]	620	0.033		0.559	1109
COc1ccc(-c2cnc(NC(C)=O)cc2Nc2cc(OC(C)C)cc(S(C)(=O)=O)n2)nn1 [Example A26, N-(4-((4-isopropoxy-6-(methylsulfonyl)pyridin-2-yl)amino)-5-(6-methoxypyridazin-3-yl)pyridin-2-yl)acetamide]	> 10000	0.032	>24691	0.405	
CCOc1cc(Nc2cc(NC(C)=O)ncc2-c2ccn(C)n2)nc(S(C)(=O)=O)c1 [Example J43, N-(4-((4-ethoxy-6-(methylsulfonyl)pyridin-2-yl)amino)-5-(1-methyl-1H-pyrazol-3-yl)pyridin-2-yl)acetamide]	> 10000	0.025		0.744	>13440
CO[C@@H]1CCCN(c2cc(Nc3cc(NC(C)=O)ncc3-c3ccc4c(n3)OCC(C)(C)O4)nc(S(C)(=O)=O)c2)C1 [Example Q66, (R)-N-(5-(2,2-dimethyl-2,3-dihydro-[1,4]dioxino[2,3-b]pyridin-6-yl)-4-((4-(3-methoxypiperidin-1-yl)-6-(methylsulfonyl)pyridin-2-yl)amino)pyridin-2-yl)acetamide]	3050	0.029		0.792	3845
COC(C)COc1cc(Nc2cc(NC(C)=O)ncc2-c2ccn(C)n2)nc(S(C)(=O)=O)c1 (stereo not drawn) [Example J13, N-(4-((4-(2-methoxypropoxy)-6-(methylsulfonyl)pyridin-2-yl)amino)-5-(1-methyl-1H-pyrazol-3-yl)pyridin-2-yl)acetamide]	> 10000	0.054		1.18	>8474
CC(=O)Nc1cc(Nc2cc(OC(C)C)cc(S(C)(=O)=O)c2)c(-c2ccc(C(C)(C)O)cn2)cn1 [Example H24, N-(5-(2-hydroxypropan-2-yl)-4′-((3-isopropoxy-5-(methylsulfonyl)phenyl)amino)-[2,3′-bipyridin]-6′-yl)acetamide]	> 10000	0.034	>1855	5.39	
CC(=O)Nc1cc(Nc2cc(OC(C)C)cc(S(C)(=O)=O)n2)c(-c2cc3c(cn2)NCCO3)cn1 [Example Q4, N-(5-(3,4-dihydro-2H-pyrido[4,3-b][1,4]oxazin-7-yl)-4-((4-isopropoxy-6-(methylsulfonyl)pyridin-yl)amino)pyridin-2-yl)acetamide]	> 10000	0.037		1.1	>9090
COCCOc1ccc(-c2cnc(NC(C)=O)cc2Nc2cc(C(F)(F)F)cc(S(C)(=O)=O)c2)nc1 [Example D3, N-(5-(2-methoxyethoxy)-4′-((3-(methylsulfonyl)-5-(trifluoromethyl)phenyl)amino)-[2,3′-bipyridin]-6′-yl)acetamide]	> 10000	0.08	>2083	4.8	
CC(=O)Nc1cc(Nc2cc(O[C@H]3C[C@@H](O)C3)cc(S(C)(=O)=O)n2)c(-c2ccn(C)n2)cn1 [Example J17, N-(4-((4-((cis)-3-hydroxycyclobutoxy)-6-(methylsulfonyl)pyridin-2-yl)amino)-5-(1-methyl-1H-pyrazol-3-yl)pyridin-2-yl)acetamide]	> 10000	0.043		6.8	>1470
COC1CC(Oc2cc(Nc3cc(NC(C)=O)ncc3-c3ccc(C(C)(C)O)cn3)nc(S(C)(=O)=O)c2)C1 (stereo not drawn) [Example H29, N-(5-(2-hydroxypropan-2-yl)-4′-((4-(3-methoxycyclobutoxy)-6-(methylsulfonyl)pyridin-2-yl)amino)-[2,3′-bipyridin]-6′-yl)acetamide]	8490	0.022	4797	1.77	
CC(=O)Nc1cc(Nc2cc(OC[C@H](C)O)cc(S(C)(=O)=O)n2)c(-c2ccc(C(F)(F)F)cn2)cn1 [Example F21, (S)-N-(4′-((4-(2-hydroxypropoxy)-6-(methylsulfonyl)pyridin-2-yl)amino)-5-(trifluoromethyl)-[2,3′-bipyridin]-6′-yl)acetamide]	> 10000	0.026	>2814	3.54	
COC(C)c1cc(Nc2cc(NC(C)=O)ncc2-c2ccn(C)n2)nc(S(C)(=O)=O)c1 (stereo not drawn) [Example J41, N-(4-((4-(1-methoxyethyl)-6-(methylsulfonyl)pyridin-2-yl)amino)-5-(1-methyl-1H-pyrazol-3-yl)pyridin-2-yl)acetamide]	> 10000	0.027		2.98	>3355
